Target: Cys-TrxR (recombinant E. coli thioredoxin reductase) (Escherichia coli, UniProt P0A9P4)
Assay: Trx-dependent reduction assay
Assay type: biochemical

Cys-TrxR (recombinant E. coli thioredoxin reductase), sequence (P0A9P4 2-321): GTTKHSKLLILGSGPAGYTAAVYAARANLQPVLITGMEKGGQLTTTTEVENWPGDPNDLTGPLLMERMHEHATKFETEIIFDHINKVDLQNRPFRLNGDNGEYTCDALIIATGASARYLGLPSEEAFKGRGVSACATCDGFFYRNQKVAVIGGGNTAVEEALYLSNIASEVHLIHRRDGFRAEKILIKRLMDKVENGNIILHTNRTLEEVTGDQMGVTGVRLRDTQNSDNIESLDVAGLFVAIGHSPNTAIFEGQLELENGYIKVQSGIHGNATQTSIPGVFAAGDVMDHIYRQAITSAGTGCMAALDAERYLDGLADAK

Row | Structure (SMILES) | IC50 [µM]
1 | N#CSO [HOSCN] | 9.3
2 | N#C[Se]O [HOSeCN] | 4.3

From PMC6951815 (Free radical biology & medicine, 2019)
